# Reference: PubChem BioAssay (NCI)
#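 In this assay, cells in 96-well plates receive the compound at five concentrations for 48 hours. Endpoints are linearly interpolated between the surrounding concentrations. TGI denotes the concentration required for complete inhibition of growth.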
# What was measured:
# Assay in all cases: growth of human tumour cells (NCI), 48 h
# 786-0 renal = system: 786-0 renal
# A549 NSCLC = system: A549 NSCLC
# ACHN renal = system: ACHN renal
# BT-549 breast = system: BT-549 breast
# CAKI-1 renal = system: CAKI-1 renal
# CCRF-CEM leukemia = system: CCRF-CEM leukemia
# COLO 205 colon = system: COLO 205 colon
# DU-145 prostate = system: DU-145 prostate
# EKVX NSCLC = system: EKVX NSCLC
# HCC-2998 colon = system: HCC-2998 colon
# HCT-116 colon = system: HCT-116 colon
# HCT-15 colon = system: HCT-15 colon
# HL-60(TB) leukemia = system: HL-60(TB) leukemia
# HOP-62 NSCLC = system: HOP-62 NSCLC
# HOP-92 NSCLC = system: HOP-92 NSCLC
# HS 578T breast = system: HS 578T breast
# HT29 colon = system: HT29 colon
# IGROV1 ovarian = system: IGROV1 ovarian
# K-562 leukemia = system: K-562 leukemia
# KM12 colon = system: KM12 colon
# LOX IMVI melanoma = system: LOX IMVI melanoma
# M14 melanoma = system: M14 melanoma
# MALME-3M melanoma = system: MALME-3M melanoma
# MCF7 breast = system: MCF7 breast
# MDA-MB-435 = system: MDA-MB-435
# MDA-N = system: MDA-N
# MOLT-4 leukemia = system: MOLT-4 leukemia
# NCI-H226 lung = system: NCI-H226 lung
# NCI-H23 lung = system: NCI-H23 lung
# NCI-H460 lung = system: NCI-H460 lung
# NCI-H522 lung = system: NCI-H522 lung
# NCI/ADR-RES ovarian = system: NCI/ADR-RES ovarian
# OVCAR-3 ovarian = system: OVCAR-3 ovarian
# OVCAR-5 ovarian = system: OVCAR-5 ovarian
# OVCAR-8 ovarian = system: OVCAR-8 ovarian
# PC-3 prostate = system: PC-3 prostate
# RPMI-8226 leukemia = system: RPMI-8226 leukemia
# RXF 393 renal = system: RXF 393 renal
# SF-268 CNS = system: SF-268 CNS
# SF-295 CNS = system: SF-295 CNS
# SF-539 CNS = system: SF-539 CNS
# SK-MEL-2 melanoma = system: SK-MEL-2 melanoma
# SK-MEL-5 melanoma = system: SK-MEL-5 melanoma
# SK-OV-3 ovarian = system: SK-OV-3 ovarian
# SN12C renal = system: SN12C renal
# SNB-19 CNS = system: SNB-19 CNS
# SR leukemia = system: SR leukemia
# SW-620 colon = system: SW-620 colon
# T-47D breast = system: T-47D breast
# TK-10 renal = system: TK-10 renal
# U251 CNS = system: U251 CNS
# UACC-257 melanoma = system: UACC-257 melanoma
# UACC-62 melanoma = system: UACC-62 melanoma
# UO-31 renal = system: UO-31 renal
# A498 renal = system: A498 renal
# MDA-MB-231 breast = system: MDA-MB-231 breast
# OVCAR-4 ovarian = system: OVCAR-4 ovarian
# SK-MEL-28 melanoma = system: SK-MEL-28 melanoma
# SNB-75 CNS = system: SNB-75 CNS
smiles,measurement,setting,value
Cc1ccc(O)c(C2=NNC(c3cccc(Br)c3)C2)c1 (configuration not stated),TGI,786-0 renal,> 100 µM
same,TGI,A549 NSCLC,> 100 µM
same,TGI,ACHN renal,> 100 µM
same,TGI,BT-549 breast,> 100 µM
same,TGI,CAKI-1 renal,> 100 µM
same,TGI,CCRF-CEM leukemia,> 100 µM
same,TGI,COLO 205 colon,> 100 µM
same,TGI,DU-145 prostate,> 100 µM
same,TGI,EKVX NSCLC,> 100 µM
same,TGI,HCC-2998 colon,> 100 µM
same,TGI,HCT-116 colon,> 100 µM
same,TGI,HCT-15 colon,35.1 µM
same,TGI,HL-60(TB) leukemia,> 100 µM
same,TGI,HOP-62 NSCLC,> 100 µM
same,TGI,HOP-92 NSCLC,92.7 µM
same,TGI,HS 578T breast,> 100 µM
same,TGI,HT29 colon,> 100 µM
same,TGI,IGROV1 ovarian,> 100 µM
same,TGI,K-562 leukemia,> 100 µM
same,TGI,KM12 colon,> 100 µM
same,TGI,LOX IMVI melanoma,> 100 µM
same,TGI,M14 melanoma,> 100 µM
same,TGI,MALME-3M melanoma,> 100 µM
same,TGI,MCF7 breast,> 100 µM
same,TGI,MDA-MB-435,46.8 µM
same,TGI,MDA-N,> 100 µM
same,TGI,MOLT-4 leukemia,> 100 µM
same,TGI,NCI-H226 lung,> 100 µM
same,TGI,NCI-H23 lung,> 100 µM
same,TGI,NCI-H460 lung,> 100 µM
same,TGI,NCI-H522 lung,> 100 µM
same,TGI,NCI/ADR-RES ovarian,> 100 µM
same,TGI,OVCAR-3 ovarian,> 100 µM
same,TGI,OVCAR-5 ovarian,> 100 µM
same,TGI,OVCAR-8 ovarian,> 100 µM
same,TGI,PC-3 prostate,> 100 µM
same,TGI,RPMI-8226 leukemia,> 100 µM
same,TGI,RXF 393 renal,> 100 µM
same,TGI,SF-268 CNS,> 100 µM
same,TGI,SF-295 CNS,> 100 µM
same,TGI,SF-539 CNS,> 100 µM
same,TGI,SK-MEL-2 melanoma,> 100 µM
same,TGI,SK-MEL-5 melanoma,> 100 µM
same,TGI,SK-OV-3 ovarian,> 100 µM
same,TGI,SN12C renal,> 100 µM
same,TGI,SNB-19 CNS,76.3 µM
same,TGI,SR leukemia,> 100 µM
same,TGI,SW-620 colon,> 100 µM
same,TGI,T-47D breast,> 100 µM
same,TGI,TK-10 renal,> 100 µM
same,TGI,U251 CNS,> 100 µM
same,TGI,UACC-257 melanoma,> 100 µM
same,TGI,UACC-62 melanoma,> 100 µM
same,TGI,UO-31 renal,> 100 µM
O=C(O)C1CCc2ccc3ccccc3c2C1c1cccc2ccccc12 (configuration not stated),TGI,786-0 renal,38.2 µM
same,TGI,A498 renal,67.2 µM
same,TGI,A549 NSCLC,36.4 µM
same,TGI,ACHN renal,> 100 µM
same,TGI,BT-549 breast,38.8 µM
same,TGI,CAKI-1 renal,> 100 µM
same,TGI,CCRF-CEM leukemia,50.7 µM
same,TGI,COLO 205 colon,77.7 µM
same,TGI,DU-145 prostate,68.8 µM
same,TGI,EKVX NSCLC,85.8 µM
same,TGI,HCT-116 colon,28.9 µM
same,TGI,HCT-15 colon,45.9 µM
same,TGI,HL-60(TB) leukemia,62 µM
same,TGI,HOP-62 NSCLC,35.9 µM
same,TGI,HOP-92 NSCLC,38.6 µM
same,TGI,HS 578T breast,> 100 µM
same,TGI,HT29 colon,32.7 µM
same,TGI,IGROV1 ovarian,63.3 µM
same,TGI,K-562 leukemia,> 100 µM
same,TGI,KM12 colon,37.8 µM
same,TGI,LOX IMVI melanoma,36.3 µM
same,TGI,M14 melanoma,38.9 µM
same,TGI,MALME-3M melanoma,50.4 µM
same,TGI,MCF7 breast,89.4 µM
same,TGI,MDA-MB-231 breast,85.4 µM
same,TGI,MDA-MB-435,73.7 µM
same,TGI,MDA-N,52.3 µM
same,TGI,MOLT-4 leukemia,48.7 µM
same,TGI,NCI-H226 lung,60 µM
same,TGI,NCI-H460 lung,38.2 µM
same,TGI,NCI-H522 lung,60 µM
same,TGI,NCI/ADR-RES ovarian,57.8 µM
same,TGI,OVCAR-3 ovarian,29.8 µM
same,TGI,OVCAR-4 ovarian,90.9 µM
same,TGI,OVCAR-5 ovarian,37.9 µM
same,TGI,OVCAR-8 ovarian,52.1 µM
same,TGI,PC-3 prostate,41.2 µM
same,TGI,RPMI-8226 leukemia,> 100 µM
same,TGI,RXF 393 renal,39.6 µM
same,TGI,SF-268 CNS,91.7 µM
same,TGI,SF-295 CNS,69.4 µM
same,TGI,SF-539 CNS,49.8 µM
same,TGI,SK-MEL-2 melanoma,38.6 µM
same,TGI,SK-MEL-28 melanoma,39.5 µM
same,TGI,SK-MEL-5 melanoma,30.1 µM
same,TGI,SK-OV-3 ovarian,> 100 µM
same,TGI,SN12C renal,59.3 µM
same,TGI,SNB-19 CNS,34.2 µM
same,TGI,SNB-75 CNS,90.1 µM
same,TGI,SR leukemia,49.9 µM
same,TGI,SW-620 colon,> 100 µM
same,TGI,T-47D breast,> 100 µM
same,TGI,TK-10 renal,> 100 µM
same,TGI,U251 CNS,33.8 µM
same,TGI,UACC-257 melanoma,59.4 µM
same,TGI,UACC-62 melanoma,29.4 µM
same,TGI,UO-31 renal,40.5 µM
NC(N)=N/N=C/c1nc2sccn2c1[N+](=O)[O-],TGI,786-0 renal,> 100 µM
same,TGI,A498 renal,> 100 µM
same,TGI,A549 NSCLC,> 100 µM
same,TGI,ACHN renal,> 100 µM
same,TGI,BT-549 breast,> 100 µM
same,TGI,CAKI-1 renal,> 100 µM
same,TGI,COLO 205 colon,29.7 µM
same,TGI,DU-145 prostate,57.1 µM
same,TGI,EKVX NSCLC,> 100 µM
same,TGI,HCT-116 colon,59.6 µM
same,TGI,HCT-15 colon,> 100 µM
same,TGI,HL-60(TB) leukemia,34.1 µM
same,TGI,HOP-62 NSCLC,> 100 µM
same,TGI,HOP-92 NSCLC,> 100 µM
same,TGI,HS 578T breast,98.4 µM
same,TGI,HT29 colon,67.7 µM
same,TGI,IGROV1 ovarian,> 100 µM
same,TGI,K-562 leukemia,85.8 µM
same,TGI,KM12 colon,47.6 µM
same,TGI,LOX IMVI melanoma,56.1 µM
same,TGI,M14 melanoma,52.7 µM
same,TGI,MALME-3M melanoma,26.3 µM
same,TGI,MCF7 breast,36.4 µM
same,TGI,MDA-MB-231 breast,80.5 µM
same,TGI,MDA-MB-435,39.9 µM
same,TGI,MDA-N,39.1 µM
same,TGI,NCI-H226 lung,> 100 µM
same,TGI,NCI-H23 lung,36.7 µM
same,TGI,NCI-H460 lung,40.9 µM
same,TGI,NCI-H522 lung,89.9 µM
same,TGI,NCI/ADR-RES ovarian,> 100 µM
same,TGI,OVCAR-3 ovarian,50.5 µM
same,TGI,OVCAR-4 ovarian,33.6 µM
same,TGI,OVCAR-5 ovarian,> 100 µM
same,TGI,OVCAR-8 ovarian,> 100 µM
same,TGI,PC-3 prostate,> 100 µM
same,TGI,RPMI-8226 leukemia,> 100 µM
same,TGI,RXF 393 renal,36.9 µM
same,TGI,SF-268 CNS,> 100 µM
same,TGI,SF-295 CNS,> 100 µM
same,TGI,SF-539 CNS,> 100 µM
same,TGI,SK-MEL-2 melanoma,41.8 µM
same,TGI,SK-MEL-28 melanoma,> 100 µM
same,TGI,SK-MEL-5 melanoma,33.9 µM
same,TGI,SK-OV-3 ovarian,> 100 µM
same,TGI,SN12C renal,> 100 µM
same,TGI,SNB-19 CNS,> 100 µM
same,TGI,SNB-75 CNS,39.5 µM
same,TGI,SR leukemia,> 100 µM
same,TGI,SW-620 colon,> 100 µM
same,TGI,T-47D breast,65.1 µM
same,TGI,TK-10 renal,> 100 µM
same,TGI,U251 CNS,> 100 µM
same,TGI,UACC-257 melanoma,31.7 µM
same,TGI,UACC-62 melanoma,> 100 µM
same,TGI,UO-31 renal,> 100 µM
